# Experimental data from patent US20240158446A1, “CYCLIC COMPOUND HAVING SELECTIVE INHIBITORY ACTION ON KRAS OVER HRAS AND NRAS” (CHUGAI SEIYAKU KABUSHIKI KAISHA, priority 2021, published 2024).
# Where two headings read alike, the source gives them in different places.
# Columns and labels:
# [1] = biological target: GDP-bound HRAS wild-type protein (Homo sapiens, UniProt P01112); test: Binding to HRAS by surface plasmon resonance (SPR), Single Cycle Kinetics
# [2] = biological target: GDP-bound NRAS wild-type protein (Homo sapiens, UniProt P01111); test: Binding to NRAS by surface plasmon resonance (SPR), Single Cycle Kinetics
# GDP-bound NRAS wild-type protein, sequence (P01111 whole entry): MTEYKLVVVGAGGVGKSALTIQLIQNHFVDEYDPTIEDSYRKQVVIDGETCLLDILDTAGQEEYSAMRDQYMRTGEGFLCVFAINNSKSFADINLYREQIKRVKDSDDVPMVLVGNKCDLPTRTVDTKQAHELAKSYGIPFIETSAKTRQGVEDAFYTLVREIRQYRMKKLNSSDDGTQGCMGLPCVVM
# [3] = test system: human lung cancer strain NCI-H441;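 note: cell proliferation inhibition after four days measured by CellTiter-Glo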
# [4] = biological target: GDP-bound KRAS wild-type protein (Homo sapiens, UniProt P01116); test: Binding to KRAS by surface plasmon resonance (SPR), Single Cycle Kinetics
# GDP-bound KRAS wild-type protein, sequence (P01116 whole entry): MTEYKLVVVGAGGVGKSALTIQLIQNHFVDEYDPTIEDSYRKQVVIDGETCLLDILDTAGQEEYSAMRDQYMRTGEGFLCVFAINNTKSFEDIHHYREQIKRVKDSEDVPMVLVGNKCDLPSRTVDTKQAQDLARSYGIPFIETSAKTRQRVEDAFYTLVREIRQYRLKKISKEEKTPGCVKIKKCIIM
# [5] = SPR, GDP-bound HRAS wild-type protein vs GDP-bound KRAS wild-type protein, KD ratio class
# [6] = SPR, GDP-bound NRAS wild-type protein vs GDP-bound KRAS wild-type protein, KD ratio class
# [7] = SPR, Single Cycle Kinetics, 1:1 binding model, GDP-bound KRAS wild-type protein, read-out: KRAS KD
# [8] = SPR, GDP-bound HRAS wild-type protein vs GDP-bound KRAS wild-type protein
# [9] = SPR, GDP-bound NRAS wild-type protein vs GDP-bound KRAS wild-type protein
# [10] = SPR, Single Cycle Kinetics, GDP-bound KRAS wild-type protein, read-out: KRAS KD
# [11] = SPR Single Cycle Kinetics, GDP-bound KRAS wild-type protein, 1:1 binding model, read-out: KRAS KD
# GDP-bound HRAS wild-type protein, sequence (P01112 whole entry): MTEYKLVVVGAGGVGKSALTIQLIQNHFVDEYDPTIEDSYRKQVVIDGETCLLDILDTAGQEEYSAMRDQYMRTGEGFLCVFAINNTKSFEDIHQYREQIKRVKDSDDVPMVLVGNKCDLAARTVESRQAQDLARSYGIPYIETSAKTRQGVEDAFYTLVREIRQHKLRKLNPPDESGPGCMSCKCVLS
SMILES,"HRAS/KRAS (ratio of KD value for HRAS to KD value for KRAS) [1, 5]","NRAS/KRAS (ratio of KD value for NRAS to KD value for KRAS) [2, 6]",IC50 [3],"Kd [4, 7]","HRAS/KRAS (ratio of KD value for HRAS to KD value for KRAS) [1, 8]","NRAS/KRAS (ratio of KD value for NRAS to KD value for KRAS) [2, 9]","Kd [4, 10]",other results
CCCCCC[C@H]1C(=O)N[C@@H]([C@@H](C)CC)C(=O)N(C)CC(=O)N(C)[C@H]2C/C=C\CCN(C2=O)[C@@H](Cc2ccc(C(F)(F)F)cc2)C(=O)N(C)CC(=O)N[C@@H](CCc2ccc3sccc3c2)C(=O)N2C[C@H](OCC)C[C@H]2C(=O)NC2(CCC2)C(=O)N(C)[C@@H](C(CC)CC)C(=O)N(C)[C@H](C(=O)N(C)C)CC(=O)N1C [PP1226],A (a compound having 10 or more and less than 20 is denoted as A),AA (a compound having 20 or more is denoted as AA),106 nM,2.4 nM,,,,
"CCC[C@H]1C(=O)N[C@@H]([C@@H](C)CC)C(=O)N(C)CC(=O)N(C)[C@H]2C/C=C\CCN(C2=O)[C@@H](Cc2ccc(C(F)(F)F)cc2)C(=O)N(C)CC(=O)N[C@@H](CCc2cc(F)c(C(F)(F)F)c(F)c2)C(=O)N2C[C@H](OCC)C[C@H]2C(=O)N(C)C2(CCC2)C(=O)N(C)[C@@H](C2CCCC2)C(=O)N(C)[C@H](C(=O)N2CCCC2)CC(=O)N1C [PP3120, (2S,8S,12R,14S,20S,23S,27S,30S,36S,38Z)-20-cyclopentyl-8-[2-[3,5-difluoro-4-(trifluoromethyl)phenyl]ethyl]-12-ethoxy-4,16,19,22,26,32,35-heptamethyl-30-[(1S)-1-methylpropyl]-27-propyl-23-(pyrrolidine-1-carbonyl)-2-[[4-(trifluoromethyl)phenyl]methyl]spiro[1,4,7,10,16,19,22,26,29,32,35-undecazatricyclo[34.5.1.0^10,14]dotetracont-38-ene-17,1′-cyclobutane]-3,6,9,15,18,21,25,28,31,34,42-undecone]",,,,,A (a compound having 10 or more and less than 20 is denoted as A),AA (a compound having 20 or more is denoted as AA),0.052 nM,"ratio of the KD value with respect to GDP-bound HRAS wild-type protein to the KD value with respect to KRAS ([1]; SPR, KD(HRAS)/KD(KRAS)): A (a compound having 10 or more and less than 20 is denoted as A); ratio of the KD value with respect to GDP-bound NRAS wild-type protein to the KD value with respect to KRAS ([2]; SPR, KD(NRAS)/KD(KRAS)): AA (a compound having 20 or more is denoted as AA); IC50 ([3]; read-out: NCI-H441 cell proliferation inhibitory activity, 50% proliferation inhibitory concentration (IC50 value), NCI-H441, four days, CellTiter-Glo): 1.9 nM; Kd ([4]; SPR, Single Cycle Kinetics, 1:1 binding model, read-out: KD value with respect to GDP-bound KRAS wild-type protein): 0.052 nM"
CCO[C@@H]1C[C@H]2C(=O)NC3(CCC3)C(=O)N(C)[C@@H](C3CCCC3)C(=O)N(C)[C@H](C(=O)N(C)CCOC)CC(=O)N(C)[C@@H](CC3CC3)C(=O)N[C@@H]([C@@H](C)CC)C(=O)N(C)CC(=O)N(C)[C@H]3C/C=C\CCN(C3=O)[C@@H](Cc3ccc(C(F)(F)F)cc3)C(=O)N(C)CC(=O)N[C@@H](CCc3ccc(Cl)c(Cl)c3)C(=O)N2C1 [PP1329],A (a compound having 10 or more and less than 20 is denoted as A),AA (a compound having 20 or more is denoted as AA),34.5 nM,0.24 nM,,,,
CC[C@H](C)[C@@H]1NC(=O)[C@H](CC2CC2)N(C)C(=O)C[C@@H](C(=O)N(C)C)N(C)C(=O)[C@H](C2CCCC2)N(C)C(=O)C2(CCC2)NC(=O)[C@H](CCC(F)F)N(C)C(=O)[C@H](CCc2cc(F)c(C(F)(F)F)c(F)c2)NC(=O)CN(C)C(=O)[C@H](Cc2ccc(C(F)(F)F)cc2)N2CC/C=C\C[C@@H](C2=O)N(C)C(=O)CN(C)C1=O [PP1402],A (a compound having 10 or more and less than 20 is denoted as A),A (a compound having 10 or more and less than 20 is denoted as A),82 nM,0.3 nM,,,,
CCO[C@@H]1C[C@H]2C(=O)NC3(CCC3)C(=O)N(C)[C@@H](C3CCCC3)C(=O)N(C)[C@H](C(=O)N3CCCC3)CC(=O)N(C)[C@@H](CC3CC3)C(=O)N[C@@H]([C@@H](C)CC)C(=O)N(C)CC(=O)N(C)[C@H]3C/C=C\CCN(C3=O)[C@@H](Cc3ccc(C(F)(F)F)cc3)C(=O)N(C)CC(=O)N[C@@H](CCc3cc(F)c(C(F)(F)F)c(F)c3)C(=O)N2C1 [PP1296],A (a compound having 10 or more and less than 20 is denoted as A),AA (a compound having 20 or more is denoted as AA),14.7 nM,0.12 nM,,,,
CC[C@H](C)[C@@H]1NC(=O)[C@H](CC2CC2)N(C)C(=O)C[C@@H](C(=O)N(C)C)N(C)C(=O)[C@H](C2CCCC2)N(C)C(=O)C2(CCCC2)NC(=O)[C@@H]2CCCN2C(=O)[C@H](CCc2ccc(C(F)(F)F)c(Cl)c2)NC(=O)CN(C)C(=O)[C@H](Cc2ccc(C(F)(F)F)cc2)N2C[C@H](C)CC[C@@H](C2=O)N(C)C(=O)CN(C)C1=O [PP1346],B (a compound having 3 or more and less than 10 is denoted as B),B (a compound having 3 or more and less than 10 is denoted as B),7.2 nM,0.084 nM,,,,
CCO[C@@H]1C[C@H]2C(=O)NC3(CC(C)(C)C3)C(=O)N(C)[C@@H](C(CC)CC)C(=O)N(C)[C@H](C(=O)N(C)C)CC(=O)N(C)[C@@H](COC)C(=O)N[C@@H]([C@@H](C)CC)C(=O)N(C)CC(=O)N(C)[C@H]3C/C=C\CCN(C3=O)[C@@H](CC3CCC(F)(F)CC3)C(=O)N(C)CC(=O)N[C@@H](CCc3ccc(C(F)(F)F)c(Cl)c3)C(=O)N2C1 [PP2444],,,32.3 nM,,A (a compound having 10 or more and less than 20 is denoted as A),A (a compound having 10 or more and less than 20 is denoted as A),0.59 nM,
CCO[C@@H]1C[C@H]2C(=O)NC3(CCC3)C(=O)N(C)[C@@H](C(CC)CC)C(=O)N(C)[C@H](C(=O)N(C)C)CC(=O)N(C)[C@@H](CC(C)C)C(=O)N[C@@H]([C@@H](C)CC)C(=O)N(C)CC(=O)N(C)[C@H]3C/C=C\CCN(C3=O)[C@@H](Cc3ccc(C(F)(F)F)cc3)C(=O)N(C)CC(=O)N[C@@H](CCc3ccc(C(F)(F)F)c(OC)c3)C(=O)N2C1 [PP1209],A (a compound having 10 or more and less than 20 is denoted as A),AA (a compound having 20 or more is denoted as AA),15.9 nM,0.22 nM,,,,
CCCOC[C@H]1C(=O)N[C@@H]([C@@H](C)CC)C(=O)N(C)CC(=O)N(C)[C@H]2C/C=C\CCN(C2=O)[C@@H](Cc2ccc(C)cc2)C(=O)N(C)CC(=O)N[C@@H](CCc2ccc(C(F)(F)F)c(Cl)c2)C(=O)N2C[C@H](OCC)C[C@H]2C(=O)NC2(CC(C)(C)C2)C(=O)N(C)[C@@H](C2CCCC2)C(=O)N(C)[C@H](C(=O)N(C)C)CC(=O)N1C [PP2402],,,10.6 nM,,A (a compound having 10 or more and less than 20 is denoted as A),A (a compound having 10 or more and less than 20 is denoted as A),0.092 nM,
CC[C@H](C)[C@@H]1NC(=O)[C@H](CC(C)C)N(C)C(=O)C[C@@H](C(=O)N2CCOCC2)N(C)C(=O)[C@H](C2CCCC2)N(C)C(=O)C2(CCCC2)NC(=O)[C@@H]2[C@@H](O)CCN2C(=O)[C@H](CCc2cc(F)c(C(F)(F)F)c(F)c2)NC(=O)CN(C)C(=O)[C@H](Cc2ccc(C(F)(F)F)cc2)N2CCCC[C@@H](C2=O)N(C)C(=O)CN(C)C1=O [PP0558],,,31.4 nM,,,,,"HRAS/KRAS (ratio of KD value with respect to HRAS to KD value with respect to KRAS) [1, 8]: B (a compound having 3 or more and less than 10 is denoted as B); NRAS/KRAS (ratio of KD value with respect to NRAS to KD value with respect to KRAS) [2, 9]: B (a compound having 3 or more and less than 10 is denoted as B); Kd [4, 11]: 0.067 nM"
CCCOC[C@H]1C(=O)N[C@@H]([C@@H](C)CC)C(=O)N(C2CC2)CC(=O)N(C)[C@H]2C/C=C\CCN(C2=O)[C@@H](Cc2ccc(C)cc2)C(=O)N(C)CC(=O)N[C@@H](CCc2ccc(C(F)(F)F)c(OC)c2)C(=O)N2C[C@@H](C)C[C@H]2C(=O)N(C)C2(CCC2)C(=O)N(C)[C@@H](C2CCCC2)C(=O)N(C)[C@H](C(=O)N(C)C)CC(=O)N1C [PP2367],,,2.1 nM,,B (a compound having 3 or more and less than 10 is denoted as B),A (a compound having 10 or more and less than 20 is denoted as A),0.075 nM,
C#CC[C@H]1C(=O)N[C@@H]([C@@H](C)CC)C(=O)N(C)CC(=O)N(C)[C@H]2C/C=C\CCN(C2=O)[C@@H](Cc2ccc(C(F)(F)F)cc2)C(=O)N(C)CC(=O)N[C@@H](CCc2cc(F)c(C(F)(F)F)c(F)c2)C(=O)N2C[C@@H](C)C[C@H]2C(=O)NC2(CCC2)C(=O)N(C)[C@@H](C2CCCC2)C(=O)N(C)[C@H](C(=O)N(C)CCC)CC(=O)N1C [PP2077],,,10.9 nM,,A (a compound having 10 or more and less than 20 is denoted as A),A (a compound having 10 or more and less than 20 is denoted as A),0.12 nM,
CC[C@H](C)[C@@H]1NC(=O)[C@H](COC)N(C)C(=O)C[C@@H](C(=O)N2CCCCC2)N(C)C(=O)[C@H](C2CCCC2)N(C)C(=O)C2(CC(C)(C)C2)NC(=O)[C@@H]2C[C@@H](OC3CCC3)CN2C(=O)[C@H](CCc2cc(F)c(C(F)(F)F)c(F)c2)NC(=O)CN(C)C(=O)[C@H](Cc2ccc(C(F)(F)F)cc2)N2CC/C=C\C[C@@H](C2=O)N(C)C(=O)CN(C)C1=O [PP2664],,,19.8 nM,,,,,"HRAS/KRAS (ratio of KD value with respect to GDP-bound HRAS wild-type protein to KD value with respect to KRAS) ([1]; SPR KD ratio HRAS/KRAS, class symbols): B (a compound having 3 or more and less than 10 is denoted as B); NRAS/KRAS (ratio of KD value with respect to GDP-bound NRAS wild-type protein to KD value with respect to KRAS) ([2]; SPR KD ratio NRAS/KRAS, class symbols): A (a compound having 10 or more and less than 20 is denoted as A); Kd [4, 11]: 0.37 nM"
